In paper PMC9804781, “Identification of a Novel Pseudo‐Natural Product Type IV IDO1 Inhibitor Chemotype” (Angewandte Chemie (International Ed. in English), 2022):
Where two headings read alike, the source gives them in different places.

What was measured:
Kyn levels in HeLa cells = experiment: Manual Kyn assay in HeLa cells (p-DMAB detection); format: cell-based; details: for IC50: IFN-γ, L-Trp, p-DMAB
Method: Mammalian cell lines were maintained at 37°C and 5% CO2 in a humidified atmosphere and sub-cultivated twice a week. All cell lines were tested regularly for mycoplasma contamination and were always free of mycoplasma. BxPC-3 cells (DSMZ#760) were grown in RPMI-1640 medium supplemented with 10% FBS, 2 mM L-glutamine, 1 mM sodium pyruvate, 4.5 g/L glucose, 10 mM HEPES and 1.5 g/L NaHCO3. HeLa cells (DSMZ#57) were cultivated in DMEM supplemented with 10% FBS, 4.5 g/L glucose, 4 mM L-glutamine 1 mM sodium pyruvate, 1% non-essential amino acids, 3.7 g/L NaHCO3. SKOV-3 cells (ATCC#HTB-77) were maintained in modified McCoy’s 5A medium supplemented with 10% FBS, 1.5 mM L-glutamine and 2.2 g/L NaHCO3. […]
For manual testing, BxPC-3, HeLa or SKOV-3 cells (20,000 cells/well, 5,000 cells/well or 6,250 cells/well, respectively) were seeded in 96-well plates (BxPC-3 and HeLa) or 384-well plates (SKOV-3) in medium without phenol red. After 24 h, the IDO1 pathway was induced by addition of 50 ng/mL (BxPC-3 and HeLa) or 17.6 ng/mL IFN-γ (SKOV-3) and 380 µM (BxPC-3), 164.15 µM (HeLa) or 450 µM L-Trp (SKOV-3) with simultaneous treatment with the compounds at the indicated concentrations followed by incubation for 48 h. For the hemin competition assay, hemin was added together with IFN-γ, L-Trp and the compounds. Subsequently, trichloroacetic acid was added to a final concentration of 7% (v/v), the plates were incubated for 15 min at room […]
temperature and centrifuged for 10 min at 1800 x g. Afterwards, an equal volume of freshly prepared 2% (w/v) p-DMAB in glacial acetic acid (Ehrlich reagent) was added prior to measuring the absorbance at 492 nm and 650 nm on the Spark® Multimode Microplate Reader (Tecan, AT).
To determine the Kyn levels, the absorbance of the Kyn-p-DMAB adduct A492 was subtracted by the background absorbance A650 and normalized to the DMSO control. Data analysis was performed using a non-linear regression curve fit and GraphPad Prism 9.0 (GraphPad Software, Inc, US) to generate dose-response curves and obtain IC50 values. […]
Subsequently, 10 mM ascorbic acid, 10 μM methylene blue, 2 mM L-Trp and 100 μg/mL catalase were added and samples were incubated for 60 min at room temperature or 37°C. […]

[1] = target: T1, Recombinant human His-IDO1 (rhIDO1) (Homo sapiens, UniProt P14902); experiment: in vitro Kyn assay (IDO1 enzymatic assay); format: biochemical
T1 construct: His; made in house; host or cells: E. coli
T1 sequence (P14902 whole entry): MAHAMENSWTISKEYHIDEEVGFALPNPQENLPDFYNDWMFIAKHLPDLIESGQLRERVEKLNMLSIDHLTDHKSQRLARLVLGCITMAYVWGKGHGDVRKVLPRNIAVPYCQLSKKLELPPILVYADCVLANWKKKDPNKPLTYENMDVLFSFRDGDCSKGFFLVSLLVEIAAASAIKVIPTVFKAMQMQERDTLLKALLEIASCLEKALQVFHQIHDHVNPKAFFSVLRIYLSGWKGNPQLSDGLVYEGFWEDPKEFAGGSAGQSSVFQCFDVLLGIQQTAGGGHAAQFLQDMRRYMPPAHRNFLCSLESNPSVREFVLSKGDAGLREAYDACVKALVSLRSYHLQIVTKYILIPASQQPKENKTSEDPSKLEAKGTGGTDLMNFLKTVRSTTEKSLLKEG
Method: To detect direct inhibition, 1 µM rhIDO1 was incubated with compounds for 40 min at 37°C in 50 mM potassium phosphate buffer (16.9 mM K2HPO4, 33.1 mM, KH2PO4, pH 6.5).
Subsequently, 10 mM ascorbic acid, 10 μM methylene blue, 2 mM L-Trp and 100 μg/mL catalase were added and samples were incubated for 60 min at room temperature or 37°C. Trichloroacetic acid was added to a final concentration of 7% (v/v) and samples were incubated for 30 min at 70°C. Afterwards, an equal volume of freshly prepared 2% (w/v) p-DMAB in glacial acetic acid (Ehrlich reagent) was added prior to measuring absorbance at 492 nm and 650 nm on the Spark® Multimode Microplate Reader (Tecan, AT). To determine the Kyn levels, the absorbance of the Kyn-p-DMAB adduct A492 was subtracted by the background absorbance A650 and normalized to the DMSO control. Data analysis was performed using a non-linear regression curve fit and GraphPad Prism 9.0 (GraphPad Software, Inc, US) to generate dose-response curves and obtain

IDO1 [2] = target: T2, IDO1 (Homo sapiens, UniProt P14902); experiment: Kyn assay in IDO1-HEK293T cells (CMV promoter); format: cell-based; parameters: host or cells: HEK293T; details: absence of IFN-γ; L-Trp, 24 h; p-DMAB
T2 sequence (P14902 whole entry): as above
Method: page 80: temperature and centrifuged for 10 min at 1800 x g. Afterwards, an equal volume of freshly prepared 2% (w/v) p-DMAB in glacial acetic acid (Ehrlich reagent) was added prior to measuring the absorbance at 492 nm and 650 nm on the Spark® Multimode Microplate Reader (Tecan, AT). To determine the Kyn levels, the absorbance of the Kyn-p-DMAB adduct […] was subtracted by the background absorbance A650 and normalized to the DMSO control. Data analysis was performed using a non-linear regression curve fit and GraphPad Prism 9.0 (GraphPad Software, Inc, US) to generate dose-response curves and obtain IC50 values. […] Afterwards, an equal volume of freshly prepared 2% (w/v) p-DMAB in glacial acetic acid (Ehrlich reagent) was added prior to measuring the absorbance at 492 nm and 650 nm on the Spark® Multimode Microplate Reader (Tecan, AT). To determine the Kyn levels, the absorbance of the Kyn-p-DMAB adduct […] was subtracted by the background absorbance A650 and normalized to the DMSO control. […] Afterwards, an equal volume of freshly prepared 2% (w/v) p-DMAB in glacial acetic acid (Ehrlich reagent) was added prior to measuring absorbance at 492 nm and 650 nm on the Spark® Multimode Microplate Reader (Tecan, AT). To determine the Kyn levels, the absorbance of the Kyn-p-DMAB adduct […] was subtracted by the background absorbance A650 and normalized to the DMSO control. […]

IDO1 [3] = target: T2, IDO1; experiment: In-Cell CETSA for IDO1 in SKOV-3 cells; format: cell-based; parameters: endogenous in cells; host or cells: SKOV-3 (IFN-γ induced); details: 15 min
Method: SKOV-3 cells (1.25 x 10^6 cells/flask) were seeded in two T75 tissue culture flasks and incubated for 24 h prior to addition of 17.6 ng/mL IFN-γ and 10 µM succinylacetone (SA, heme synthesis inhibitor). After 24 h, cells were treated with the compound (C) or DMSO (V, vehicle) for 15 min at 37°C. Cells were detached with trypsin/EDTA and washed thrice in cold PBS after resuspension in cold PBS. C- and V-treated samples were distributed equally into ten tubes each and subjected to heating at different temperatures in the MasterCycler EpGradient S (Eppendorf SE, DE). Afterwards, NP-40 alternative was added to a final concentration of 0.4% (v/v) and cells were lysed by five consecutive freeze/thaw cycles. Soluble fractions were separated from denatured proteins by centrifugation at 100,000 x g and 4°C for 20 min. Supernatants were transferred to new tubes and subjected to immunoblot analysis.

What does the source list for `CCOC(=O)C1=CC[C@](C(=O)OC)(c2cc3ccccc3n2C)N(S(=O)(=O)c2ccc(C)cc2)[C@@H]1C(=O)OC(C)(C)C` [Compound 3d]?
fold less active than enantiopure apoxidole-1 (Kyn assay) (Kyn levels in HeLa cells): 72 fold; IC50 (Kyn levels in HeLa cells; Homo sapiens, HeLa, 48 h, 48 h, mean±SD, n=3, read-out: Kyn assay IC50 HeLa): 0.0467 ± 0.0024 µM; IC50 (Kyn levels in HeLa cells; 48 h, mean±SD, n=3, listed as apoxidole-1, read-out: Kyn assay IC50 HeLa): 0.0467 ± 0.00244 µM; IC50 (Kyn levels in HeLa cells; compounds 48 h, mean n=3 ±SD, listed as 3d^a, read-out: Kyn Assay IC50): 0.28 ± 0.04 µM; IC50 (Kyn levels in HeLa cells; compounds 48 h, mean n=3 ±SD, listed as 3d^ab, read-out: Kyn Assay IC50): 3.41 ± 0.26 µM; IC50 (Kyn levels in HeLa cells; compounds 48 h, mean n=3 ±SD, listed as 3d^b, read-out: Kyn Assay IC50): 0.047 ± 0.002 µM; IC50 (Kyn levels in HeLa cells; compounds 48 h, mean n=3 ±SD, read-out: Kyn Assay IC50): 0.07 ± 0.01 µM; IDO1 enzymatic assay activity at 25 °C ([1]; 25 °C): inactive; IDO1 activity after pre-incubation at 37 °C ([1]; holo-IDO1, 40 min at 37 °C): decreased IDO1 activity; Kyn production in HEK293T cells transiently expressing IDO1 (IDO1 [2]): inhibited Kyn production; CETSA shift in Tm of IDO1 (result in words) (IDO1 [3]; IFN-γ 24 h, 50 μM, no succinylacetone): did not lead to a shift; ΔTm at 30 µM (IDO1 [3]; SK-OV-3, IFN-γ and 10 μM succinylacetone 24 h, 30 μM, read-out: CETSA ΔTm of apo-IDO1): 7.9 ± 0.6 °C
